# Tests used:
# Type in all cases: cell-based
# Clu-GABA α3β2γ2 = Clu-GABA α3β2γ2 (Canis lupus familiaris, UniProt A0A8I3PRS3+A0A8I3RPG5+E2RSQ0); experiment: Two-electrode voltage-clamp concentration-activation by the natural agonist, receptor expressed in Xenopus oocytes
# Excerpt: (§1) Complementary DNA (cDNA) encoding for the human GABAA proteins α1 (NM_001127645.2), α2 (NM_001377146.1), α3 (KJ620007.1), α4 (NM_000809.4), α5 (NM_000810.4), α6 (NM_000811.3), β2 (XM_054352312.1), β3 (M82919.1), γ2 (NM_000816.3) and δ (NM_000815.5) were ordered from Genewiz (www.genewiz.com; Leipzig, Germany); for each gene, GenBank accession numbers are provided in parentheses. When necessary, silent mutations were introduced to break NheI or XhoI internal restriction sites. The corresponding open reading frames (ORF) were cloned into the pT7-TS transcription vector (introducing X. laevis β-globin untranslated cDNA to the 5’ and 3’ ends of the gene), following a procedure described in detail in a previous publication. The same process was used to obtain cDNA encoding canine GABAA proteins α4 (XM_025435560.1), α6 (XM_022417729.1) and δ (XM_005620414.2). Gene α2 (XM_025435664.1), α3 (XM_549343.5), α5 (XM_545805.6) and β3 (XM_025437408.1) were obtained by PCR; GenBank reference accession numbers are provided in parentheses. RNA extraction, cDNA synthesis and PCR amplification were performed as described previously. Total RNA was extracted from a piece of dog brain (Beagle breed; Canis lupus familiaris) from which 1 µg of total RNA (DNase-treated) was reverse-transcribed to cDNA using a (dT)30 primer and SuperScript III Reverse Transcriptase (Invitrogen, Thermo Fisher Scientific, Waltham, MA, USA). Gene-specific primers (Additional file 1: Table S1) were designed using Primer 3 software (http://frodo.wi.mit.edu/). […] The cycling conditions were: 98 °C for 30 s; then 38 cycles of 98 °C for 10 s, 58 °C for 30 s and 72 °C for 90 s; followed by 72 °C for 5 min. The dog subunits α1 (XM_546261.5), β2 (XM_014113040.1) and γ2 (XM_546259.5) had been previously amplified and described in a study by Rufener et al..
# (§2) Defoliculated X. laevis oocytes ordered from Ecocyte Bioscience (Dortmund, Germany) were microinjected with 15–25 nl of cRNA solution (5–50 ng/μl) per oocyte using an automated injector (Roboinject; Multi Channel Systems MCS GmbH, Reutlingen, Germany) and then incubated at 18 °C. All recordings were made 1–5 days post-cRNA injection and were performed at 18 ± 4 °C. Cells were superfused with OR2 medium (NaCl 88 mM, KCl 2.5 mM, HEPES 5 mM, CaCl2•2H2O 1.8 mM, MgCl2•7H2O 1.0 mM, pH 7.4). To ensure that γ2 subunits were integrated into the heteropentamers, we injected fivefold more γ2 than the other subunit cRNAs. Diazepam is a positive allosteric modulator of GABAR only if γ2 subunits are present. Therefore, we used this method to confirm the presence of human and dog GABAA receptor containing the γ2 subunit.
# (§3) Voltage-clamp measurements were performed as described by Rufener et al.. Oocytes were impaled with two electrodes filled with 3 M KCl, and their membrane potentials were maintained at − 80 mV throughout the experiment. […] Recordings were performed using an automated process equipped with standard two-electrode voltage-clamp configuration (HiClamp system; Multi Channel Systems MCS GmbH). Data were filtered at 10 Hz, captured at 100 Hz and analyzed using proprietary data acquisition and analysis software in MATLAB (Mathworks Inc., Natick, MA, USA). Additional analyses were performed using Excel (Microsoft, Redmond, WA, USA). […] Graphing the maximum inward currents against the log of agonist concentration produces typical concentration-activation and concentration-inhibition curves, which can be accurately described using individual Hill equations.
# Clu-GABA α2β2γ2 = Clu-GABA α2β2γ2 (Canis lupus familiaris, UniProt A0A8I3RPG5+A0A8I3S1N5+E2RSQ0); experiment: as above
# Sequence of Clu-GABA α2β2γ2 (A0A8I3S1N5 29-451): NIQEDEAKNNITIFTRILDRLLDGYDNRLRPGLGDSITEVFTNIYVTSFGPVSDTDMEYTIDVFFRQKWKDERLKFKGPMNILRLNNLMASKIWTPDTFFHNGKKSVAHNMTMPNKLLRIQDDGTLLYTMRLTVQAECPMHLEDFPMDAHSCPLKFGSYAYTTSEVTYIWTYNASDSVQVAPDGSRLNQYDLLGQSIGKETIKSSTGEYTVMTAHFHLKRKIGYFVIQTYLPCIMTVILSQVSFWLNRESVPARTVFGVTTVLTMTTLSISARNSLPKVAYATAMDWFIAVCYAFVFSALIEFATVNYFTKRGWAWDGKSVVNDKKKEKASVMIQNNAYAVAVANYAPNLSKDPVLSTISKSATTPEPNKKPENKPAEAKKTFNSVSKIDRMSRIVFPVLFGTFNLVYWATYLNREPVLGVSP
# Sequence of Clu-GABA α2β2γ2 (A0A8I3RPG5 25-473): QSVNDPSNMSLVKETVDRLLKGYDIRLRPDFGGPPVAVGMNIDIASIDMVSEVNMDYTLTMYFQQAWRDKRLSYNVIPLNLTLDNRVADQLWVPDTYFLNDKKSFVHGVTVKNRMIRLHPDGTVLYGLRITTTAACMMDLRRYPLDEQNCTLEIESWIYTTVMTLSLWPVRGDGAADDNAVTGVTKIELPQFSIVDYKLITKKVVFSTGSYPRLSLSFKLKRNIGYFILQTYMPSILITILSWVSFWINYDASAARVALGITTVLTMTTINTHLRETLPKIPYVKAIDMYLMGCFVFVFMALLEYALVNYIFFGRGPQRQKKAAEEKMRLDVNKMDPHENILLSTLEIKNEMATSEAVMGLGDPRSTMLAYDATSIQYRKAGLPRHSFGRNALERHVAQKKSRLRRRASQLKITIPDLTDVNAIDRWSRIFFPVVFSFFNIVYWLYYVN
# Sequence of Clu-GABA α2β2γ2 (E2RSQ0 40-467): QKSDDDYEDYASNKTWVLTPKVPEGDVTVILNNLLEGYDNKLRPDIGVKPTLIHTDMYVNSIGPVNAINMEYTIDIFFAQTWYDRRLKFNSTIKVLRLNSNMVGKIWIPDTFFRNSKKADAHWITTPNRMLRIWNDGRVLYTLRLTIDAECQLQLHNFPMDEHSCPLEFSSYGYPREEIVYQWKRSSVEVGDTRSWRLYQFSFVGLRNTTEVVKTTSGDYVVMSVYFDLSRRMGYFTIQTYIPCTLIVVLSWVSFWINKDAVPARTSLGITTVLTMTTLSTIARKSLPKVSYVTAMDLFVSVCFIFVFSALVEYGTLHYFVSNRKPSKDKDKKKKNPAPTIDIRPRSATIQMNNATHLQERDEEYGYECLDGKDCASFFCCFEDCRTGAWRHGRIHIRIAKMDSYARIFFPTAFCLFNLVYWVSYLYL
# Excerpt: as §1, §2, §3
# Clu-GABA α5β2γ2 = Clu-GABA α5β2γ2 (Canis lupus familiaris, UniProt A0A8I3PC22+A0A8I3RPG5+E2RSQ0); experiment: as above
# Sequence of Clu-GABA α5β2γ2 (A0A8I3PC22 32-462): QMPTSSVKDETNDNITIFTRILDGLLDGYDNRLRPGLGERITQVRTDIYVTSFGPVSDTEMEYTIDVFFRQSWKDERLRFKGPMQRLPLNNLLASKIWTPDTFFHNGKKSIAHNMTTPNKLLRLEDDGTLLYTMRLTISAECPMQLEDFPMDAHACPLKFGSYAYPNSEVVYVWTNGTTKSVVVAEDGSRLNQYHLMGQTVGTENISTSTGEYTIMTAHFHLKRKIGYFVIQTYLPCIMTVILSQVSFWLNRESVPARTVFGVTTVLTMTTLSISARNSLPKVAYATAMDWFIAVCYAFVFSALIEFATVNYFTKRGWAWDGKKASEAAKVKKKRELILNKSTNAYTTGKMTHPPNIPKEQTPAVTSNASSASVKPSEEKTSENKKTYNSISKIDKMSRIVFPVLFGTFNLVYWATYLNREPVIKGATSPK
# Sequence of Clu-GABA α5β2γ2 (A0A8I3RPG5 25-473): as the sequence (A0A8I3RPG5 25-473) above
# Sequence of Clu-GABA α5β2γ2 (E2RSQ0 40-467): as the sequence (E2RSQ0 40-467) above
# Excerpt: as §1, §2, §3
# Clu-GABA α1β2γ2 = Clu-GABA α1β2γ2 (Canis lupus familiaris, UniProt A0A2H4NNI8+A0A8I3RPG5+E2RSQ0); experiment: as above
# Sequence of Clu-GABA α1β2γ2 (A0A2H4NNI8 28-456): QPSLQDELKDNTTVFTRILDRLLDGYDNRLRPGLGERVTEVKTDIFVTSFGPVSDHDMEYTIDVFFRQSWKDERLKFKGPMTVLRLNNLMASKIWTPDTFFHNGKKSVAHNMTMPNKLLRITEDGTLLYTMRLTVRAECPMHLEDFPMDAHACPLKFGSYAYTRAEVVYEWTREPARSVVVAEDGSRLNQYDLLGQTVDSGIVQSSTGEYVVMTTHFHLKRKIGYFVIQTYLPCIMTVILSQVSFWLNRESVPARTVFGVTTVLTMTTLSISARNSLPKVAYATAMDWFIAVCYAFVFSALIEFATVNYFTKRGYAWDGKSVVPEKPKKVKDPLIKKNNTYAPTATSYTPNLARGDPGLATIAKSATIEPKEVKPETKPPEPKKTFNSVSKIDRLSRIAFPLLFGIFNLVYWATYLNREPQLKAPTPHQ
# Sequence of Clu-GABA α1β2γ2 (A0A8I3RPG5 25-473): as the sequence (A0A8I3RPG5 25-473) above
# Sequence of Clu-GABA α1β2γ2 (E2RSQ0 40-467): as the sequence (E2RSQ0 40-467) above
# Excerpt: as §1, §2, §3
# Clu-GABA α2β3γ2 = Clu-GABA α2β3γ2 (Canis lupus familiaris, UniProt A0A8I3NUI4+A0A8I3S1N5+E2RSQ0); experiment: as above
# Sequence of Clu-GABA α2β3γ2 (A0A8I3S1N5 29-451): as the sequence (A0A8I3S1N5 29-451) above
# Sequence of Clu-GABA α2β3γ2 (A0A8I3NUI4 101-496): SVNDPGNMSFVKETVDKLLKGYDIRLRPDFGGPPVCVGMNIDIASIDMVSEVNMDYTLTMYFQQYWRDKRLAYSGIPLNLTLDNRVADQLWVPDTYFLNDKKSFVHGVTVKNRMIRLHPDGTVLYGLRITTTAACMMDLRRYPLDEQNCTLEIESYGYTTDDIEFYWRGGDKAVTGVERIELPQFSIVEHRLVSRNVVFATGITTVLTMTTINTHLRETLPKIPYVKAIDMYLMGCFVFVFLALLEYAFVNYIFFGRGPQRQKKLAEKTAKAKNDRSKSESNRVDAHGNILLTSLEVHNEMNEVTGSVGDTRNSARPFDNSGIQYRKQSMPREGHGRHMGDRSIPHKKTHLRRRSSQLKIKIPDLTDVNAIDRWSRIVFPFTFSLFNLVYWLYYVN
# Sequence of Clu-GABA α2β3γ2 (E2RSQ0 40-467): as the sequence (E2RSQ0 40-467) above
# Excerpt: as §1, §2, §3
# Hsa-GABAR = experiment: Voltage-clamp concentration-activation, summary over the six human receptors; details: concentration-activation curves
# Method: as §2
# Voltage-clamp measurements were performed as described by Rufener et al.. Oocytes were impaled with two electrodes filled with 3 M KCl, and their membrane potentials were maintained at − 80 mV throughout the experiment. […] Recordings were performed using an automated process equipped with standard two-electrode voltage-clamp configuration (HiClamp system; Multi Channel Systems MCS GmbH). Data were filtered at 10 Hz, captured at 100 Hz and analyzed using proprietary data acquisition and analysis software in MATLAB (Mathworks Inc., Natick, MA, USA). […]
# [1] = agonist, 10 s applications, Xenopus oocytes, −80 mV
# Sequence of Clu-GABA α3β2γ2 (A0A8I3PRS3 29-259): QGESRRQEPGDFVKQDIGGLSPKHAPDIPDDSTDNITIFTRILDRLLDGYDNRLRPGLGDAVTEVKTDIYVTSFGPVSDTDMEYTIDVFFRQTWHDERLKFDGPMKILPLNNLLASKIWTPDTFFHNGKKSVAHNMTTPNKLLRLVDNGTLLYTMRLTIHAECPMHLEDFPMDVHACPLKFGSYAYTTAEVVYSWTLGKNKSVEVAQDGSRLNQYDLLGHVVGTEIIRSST
# Sequence of Clu-GABA α3β2γ2 (A0A8I3RPG5 25-473): as the sequence (A0A8I3RPG5 25-473) above
# Sequence of Clu-GABA α3β2γ2 (E2RSQ0 40-467): as the sequence (E2RSQ0 40-467) above
smiles,measurement,setting,value
"NCCCC(=O)O [GABA, gamma-aminobutyric acid]",EC50,Clu-GABA α3β2γ2; [1],40.4 µM
same,nH (Hill coefficient),Clu-GABA α3β2γ2; concentration-activation curve,0.8
same,EC50,Clu-GABA α2β2γ2; [1],42 µM
same,nH (Hill coefficient),Clu-GABA α2β2γ2; concentration-activation curve,1.3
same,EC50,Clu-GABA α5β2γ2; [1],8.1 µM
same,nH (Hill coefficient),Clu-GABA α5β2γ2; concentration-activation curve,1.1
same,EC50,Clu-GABA α1β2γ2; [1],10 µM
same,nH (Hill coefficient),Clu-GABA α1β2γ2; concentration-activation curve,1.0
same,EC50,Clu-GABA α2β3γ2; [1],8.6 µM
same,nH (Hill coefficient),Clu-GABA α2β3γ2; concentration-activation curve,1.6
same,Hill coefficients over the six Hsa-GABAR,Hsa-GABAR,higher than 1

# Reference: article PMC12144822 (Parasites & Vectors, 2025)
